Results on 2 compounds are retold here after patent US5908868A, “Retinol derivatives useful for enhancing immune response” (priority 1995, dated 1999).

The test system of one data set is 5/2 cells. Nature of the data set: Growth (DNA synthesis, [3H]thymidine) of lymphoblastoid 5/2 cells in serum-free medium. The note with it: ITLB medium without retinol. Type of data set: cell-based, human. The method, then:
Washed 5/2 cells (5,000/well) were incubated for 72 hours in HB101 medium with the indicated amounts of retinoids. DNA synthesis was measured by [^3 H] thymidine uptake. The measurements were done in triplicate. The SDs were <15%.
In FIGS. 4B to 4D, 5/2 cells were washed twice and seeded at a concentration of 150,000 cells/ml in HB 101 medium. Triplicate samples of 100 μl of cell suspension were removed daily and pulsed for 6 hours with [^3 H] thymidine. Means are shown. The SDs were never >20%.
P3 was purified as described in the Experimental Details section. 5/2 cells (5,000/well) were incubated for 72 hours in HB101 medium and refed with the indicated amount of retinoid daily. DNA synthesis was measured by [^3 H]-thymidine uptake. P3 is bioactive down to a concentration of 10-^8 M (FIG. 8). […] This is due either to chemical instability or to a more rapid metabolic degradation of P3 by the cells.
The assay was done in 96-well microtiter plates in a final volume of 200 ul/well. The cells were cultured for 72 hours and cell growth determined by [^3 H] thymidine (0.8 μCi/well)labeling for the last 16 hours. Retinoids were added at the indicated concentrations at the initiation of culture and every 24 hours thereafter.
The human EBV-transformed B-cell line 5/2 was established from the peripheral blood of a healthy donor. The cell line was grown in RPMI 1640 supplemented with 8% fetal calf serum, L-glutamine (2 mM), and antibiotics. The cell line was tested regularly for mycoplasma infections and was consistently negative.
The assay system is a modification of the assay developed by Blazar et al. (12). […] Assays were done in 96 well microtiter plates in a final volume of 200 μl/well or in 25 cm^2 tissue culture flasks. The cells in the microtiter plates were cultured for 72 hours and cell growth was determined by labeling for the last 16 hours with 0.8 μCi/well of [^3 H]thymidine (sp. act. 6.7 Ci/mmol). Growth in the culture flasks was determined in three aliquots of 100 μl taken at 24 hours intervals and cultured in the presence of 0.8 μCi of [^3 H]thymidine for an additional 6 hour period. To determine the viable cell number, nine aliquots per time point were differentially counted in a Neubauer chamber in the presence of trypan blue.
5/2 cells were grown in the absence of retinol in a medium containing the basic RPMI 1640 amino acid/salt mixture, insulin (5 μg/ml), transferrin (5 μg/ml), albumin (0.1%) and linoleic acid (10^-6 M) (ITLB). […] The dose-response curve shown in FIG. 26 indicates an effective concentration of 10^-7 M.

A further data set concerns T cells. The data set can be described thus: T cell activation/proliferation. As to conditions: with mitogen/anti-CD3. Type of data set: cell-based, murine. As for the experimental part: They were seeded into 96-well flat-bottom plates at varying cellular densities in a final volume of 100 μl. In control experiments, cells were cultured in medium containing 10% FCS or 3% human serum and 5×10^-5 M 2 ME. […] Cultures were carried out in duplicate. Plates were incubated at 37° C. in a humidified 5% CO2 atmosphere. Cellular proliferation was determined by [^3 H] thymidine uptake (0.5 uCi/well; New England Nuclear, Boston, Mass.) after the incubation times indicated for each experiment with a 4 hour labeling pulse. Cells were harvested onto glass filter and [^3 H]TdR incorporation was determined by liquid scintillation counting. The data presented are the means of duplicate or six replicate cultures. The restriction to duplicate measurements was necessary to conserve scarce 14HRR. […] Each experiment was repeated at least twice.

A further data set deals with lymphoblastoid 5/2 cells. Nature of the data set: Conversion of 13,14DHR to 14HRR by lymphoblastoid cells. As to conditions: 10^-6 M, 1 and 2 hours, ITLB. It is filed as in vitro ADME, human. As for the experimental part: FIGS. 25A through 25D. 13,14DHR can be converted to 14HRR by lymphoblastoid cells. 200,000 5/2 cells/ml were incubated with or without 10^-6 M 13,14DHR added in serum-free ITLB medium. After 1 and 2 hours, cells pellets corresponding to 10 ml of culture were delipidated and the corresponding lipid fractions separated on an analytical C18 reversed-phase column according to FIG. 20. Peaks were identified according to their retention times and their UV absorption patterns.
Lymphoblastoid 5/2 cells devoid of retinol were cultured in the presence or absence of 10^-6 M 13,14DHR for 1 and 2 hours in ITLB medium. The retinoids extracted from the cell pellets were separated by HPLC according to FIG. 20. […] There was no 14HRR measurable in control cultures.

For the next data set, the system named is lymph node T cells. Nature of the data set: Proliferation of anti-CD3 activated lymph node T cells. Type of data set: cell-based, BALB/c mouse. From the text: Growth curves of lymph node T cells depleted of antigen-presenting cells (FIG. 17A) with and without 10^-6 M retinol at 2×10^5 and 5×10^4 cells/well. (FIG. 17B) Dose-responses elicited by different retinoids in cultures of lymph node T cells depleted of antigen-presenting cells. Also shown are the growth curves of CD4^+ (FIG. 17C) and CD8^+ T lymphocytes (FIG. 17D) in the presence of either retinol, 14HRR, human serum or in their absence.
T lymphocytes, purified as described, 5×10^4 well, were activated with immobilized anti-CD3 antibody in ITLB medium. The indicated amounts of retinoids or human serum were added at initiation of cultures. […] 14HRR was added every 12 hours. DNA synthesis was measured by a 4 hour pulse with tritiated thymidine. SDs were ≤17%.
Mature T cells were obtained from pooled intestinal, axillary, inguinal and submandibular lymph nodes of 4 to 10-week-old BALB/c mice. To fractionate cells into CD4 and CD8 subsets and at the same time remove APC, a combination of adherence and complement lysis was used as follows:
Cells were cultured in serum-free medium, referred to as ITLB, containing RPMI 1640 supplemented with 8×10^-7 M insulin (5 μg/ml), 7×10^-8 M transferrin (5 μg/ml), 2×10^-6 M linoleic acid, 2×10^-6 M delipidated BSA (0.12 mg/ml), 2 mM L-glutamine, 1 mM sodium pyruvate and antibiotics. They were seeded into 96-well flat-bottom plates at varying cellular densities in a final volume of 100 μl. In control experiments, cells were cultured in medium containing 10% FCS or 3% human serum and 5×10^-5 M 2 ME. T cells and thymocytes were activated with immobilized, purified anti-mab CD3e or by the addition of Con A in the presence or absence of different concentrations of retinoids. Unless indicated otherwise, retinoids were replenished every 12 hours to maintain a reasonably constant concentration of these labile compounds in culture. The optimal concentration for stimulation of T cells was determined for each batch of anti-CD3 mAb and Con A. The optimal range of Con A was particularly narrow in serum-free medium (0.5-0.2 μg/ml) and varied with the cell density used. […] Cultures were carried out in duplicate. Plates were incubated at 37° C. in a humidified 5% CO2 atmosphere. Cellular proliferation was determined by [^3 H] thymidine uptake (0.5 uCi/well; New England Nuclear, Boston, Mass.) after the incubation times indicated for each experiment with a 4 hour labeling pulse. Cells were harvested onto glass filter and [^3 H]TdR incorporation was determined by liquid scintillation counting. The data presented are the means of duplicate or six replicate cultures. The restriction to duplicate measurements was necessary to conserve scarce 14HRR. They were within 20% of each other. Each experiment was repeated at least twice.

The subject of data set [1] is lymphoblastoid cells (LCL). The note with it: serum-free medium; cited from earlier work.

Molecules are shown by their SMILES. Entries after “also recorded” stand apart in the source; their conditions may differ.

For the compound `CC(C=CC1=C(C)CCCC1(C)C)=CC=CC(C)(O)C(O)CO` (stereo not drawn) [13,14DHR, 13,14-dihydroxy-retinol], the “restoration of capacity to proliferate” value with 5/2 cells was “proliferation was restored as well”. The “substitution for retinol in T cell activation” value was “can effectively substitute for retinol” in the data set with T cells and “capable of being used in lieu of retinol” in the data set with T cells (listed as 13,14 DHR). The “conversion to 14HRR” value in the data set on lymphoblastoid 5/2 cells was “produced 14HRR”.

Consider `CC1=C(/C=C/C(C)=C/C=C/C(C)=C/C(=O)O)C(C)(C)CCC1` [all-trans retinoic acid], for which, in the data set on lymph node T cells (10^-5 M), the “stimulatory activity at 10^-5 M” value is “very modest stimulatory activity”. Besides, in the data set on lymph node T cells (anti-CD3), the “stimulation of lymph node T cells” value was “nearly inert”. Moreover, the figures for the “substitution for retinol in T cell activation” value in the data set on T cells and with T cells (listed as retinoic acid) were “not” and “cannot be satisfied; also recorded: neither respond to externally provided retinoic acid”, respectively. Besides, in data set [1], the “support of growth of LCL” value is given as “not”.
